In patent US20220132839A1, “MOSQUITO ATTRACTANT COMPOSITIONS” (UNIVERSITY OF WASHINGTON, priority 2019, published 2022):
“Also recorded” adds a separate entry of the source.

Assays:
Aedes mosquitoes = assay: GC-EAD antennal responses, Aedes mosquitoes from the field
From the text: (§1) Electroantennogram signals were filtered and amplified (100×; 0.1-500 Hz) using an A-M 1800 amplifier (Sequim, Wash., USA) connected to a personal computer via a BNC-2090A analog-to-digital board (National Instruments, Austin, Tex., USA) and digitized at 20 Hz using WinEDR software (Strathclyde Electrophysiology Software, Glasgow, UK). A Hum Bug noise eliminator (Quest Scientific, Vancouver, Canada) was used to decrease electrical noise. The antennal responses to peaks eluting from the GC were measured for each mosquito preparation, and each peak and mosquito species. Bioactive peaks were those that elicited strong EAD responses, corresponding to deflections beyond the average noise floor of the baseline EAD signal. Responses by each individual preparation were used for Principal Component Analysis (Ade4 package, R). The responses of eight different mosquito species were tested to the scent extracts of three orchid species (n=8 mosquito species for P. obtusata; n=4 mosquito species each for P. stricta and P. huronensis; with 3-17 replicates per mosquito species per orchid, for a total of 109 GC-EAD experiments).
Individual mosquitoes were isolated in Falcon™ tubes (Thermo Fisher Scientific, Pittsburgh, Pa., USA) covered with a piece of fine mesh. They were maintained in a climatic chamber, as previously described, and identified immediately before running the experiment. Carbon dioxide delivered through a pad (Genesee Scientific, San Diego, Calif., USA) was used to briefly anesthetize mosquitoes before transferring them on ice for the dissection. The head was excised and the tip (i.e., one segment) of each antenna was cut off with fine scissors under a binocular microscope (Carl Zeiss, Oberkochen, Germany). The head was then mounted on an electrode composed of a silver wire 0.01″ (A-M Systems, Carlsbord, Wash., USA) and a borosilicate pulled capillary (Sutter Instrument Company, Novato, Calif., USA) filled with a 1:3 mix of saline (L. B. Thien, F. Utech, The mode of pollination in Habenaria obtusata (Orchidaceae). American Journal of Botany 57, 1031-1035 (1970) and electrode gel (Parker Laboratories, Fairfield, N.J., USA) in order to avoid the preparation to desiccate during the experiment. The head was mounted by the neck on the reference electrode. The preparation was then moved to the GC-EAD with the tips of the antennae inserted under the microscope (Optiphot-2, Nikon, Tokyo, Japan) into a recording electrode, that was identical to the reference electrode. The mounted antennae were oriented at 90° from the main airline which was carrying filtered air (Praxair, Danbury, Conn., USA) and volatiles eluting from the Gas-Chromatograph to the preparation via a 200° C. transfer line (EC-05; Syntech GmbH, Buchenbach, Germany). Five microliters of the orchid extract were injected into the Gas Chromatograph with Flame Ionization Detection (Agilent 7820A GC, Agilent Technologies; DB5 column, J&W Scientific, Folsom, Calif., USA). The oven program was the same as the one used for the GC-MS analyses of the scent extracts. The transfer line from the GC to the preparation was set to 200° C.

Ae. aegypti AL glomeruli = assay: Two-photon calcium imaging (PUb-GCaMP6s) of the antennal lobe, Ae. aegypti; type: in vivo; conditions: for AM2 response with increasing dose: different concentrations; for AM2 glomerulus response: odor stimulation; for glomerular responses in the AL: imaged at 40 μm depth, particularly AL3 and LC2 glomeruli for the mixture; for AM2 response to lilac aldehyde/nonanal mixtures / LC2 response to lilac aldehyde/nonanal mixtures: lilac aldehyde and nonanal at different concentration ratios; for LC2 glomerulus response: single odorants; for effect of GABA-receptor antagonists on AM2 response to the P. obtusata scent / effect of GABA-receptor antagonists on LC2 and AM2 responses to the P. stricta scent: 1 μM CGP54626, 10 μM picrotoxin focally applied together on to the AL
From the text: A total of twenty preparations were used: 10 for single odorant and orchid mixture experiments; 6 for ratio experiments; and 4 for experiments using GABA-receptor antagonists. […] The expression of GCaMP occurred in glia, local interneurons, and projection neurons. […] Thus, in the calcium imaging experiments care was taken to image from the central regions of the glomeruli and avoid the sheaths and external glomerular loci. […] Relatedly, GCaMP6s expression is very high in AL local interneurons and projection neurons (PNs), such that during odor stimulation the PNs and axonal processes can often be imaged, and 3D reconstructions can be take place through simultaneous optical sections with odor stimulation. Nonetheless, the glomerular responses were assumed to be a function of multiple cell types.
Similar to experiments with Ae. increpitus, the majority the mosquitoes were UV-glued to the stage to allow free movement of their wings and proboscis; however, for experiments using GABA-receptor antagonists the proboscis was glued to the stage for additional stability. Once the mosquito was fixed to the stage, a window in its head was cut to expose the brain, and the brain was continuously superfused with physiological saline.
Thus a provisional atlas was created with female mosquitoes (n=6) that allowed for cross-reference of the imaged glomeruli and comparison of their positions and structures to those described in the atlas. This was accomplished via clear glomerular boundaries, especially during odor stimulation, and the distinct odorant tuning of glomeruli throughout the depths of the AL (e.g., AM2 responsive to DEET; LC2 and AL3 responsive to nonanal; PD3 responsive to geosmin; and MD2 responsive to CO2) that allowed 3D registration across preparations and subsequent warping and referencing with the atlas.
Saline and pharmacological agents. The saline was made based on the Beyenbach and Masia recipe (L. B. Thien, F. Utech, The mode of pollination in Habenaria obtusata (Orchidaceae). American Journal of Botany 57, 1031-1035 (1970)) and contained 150.0 mM NaCl, 25.0 mM N-2-hydroxyethyl-piperazine-N′-2-ethanesulfonic acid (HEPES), 5.0 mM sucrose, 3.4 mM KCl, 1.8 mM NaHCO3, 1.7 mM CaCl2, and 1.0 mM MgCl2. The pH was adjusted to 7 with 1 M NaOH. […] […] A drip system comprising two 100 mL reservoirs—one containing the GABA receptor antagonists, and the other saline—converged on the two-channel temperature controller to facilitate rapid switching from normal physiological saline solution to the antagonists and back. Antagonists were superfused directly into the holder near to the opening of the head capsule and recorded neuropil. The odor-evoked responses were first recorded under normal physiological saline solution and then repeated under GABA receptor antagonists diluted in normal saline solution, and finally the normal saline wash. All calcium imaging data were statistically analyzed using Kruskal-Wallis tests with multiple comparisons and visualized using Principal Components Analysis. Analyses were performed in Matlab (v2017; Mathworks, Natick, Mass.).
Olfactory stimuli were delivered to the mosquito by pulses of air diverted through a 2 mL cartridge containing a piece of filter paper bearing the odor stimulus (2 An air line provided gentle and constant charcoal-filtered air at 1 m/s to the antennae allowing continuous ventilation to prevent adaptation of the olfactory receptor cells. The stimulus output was positioned in the air line 2 cm from and orthogonal to the mosquito antennae. For testing different ratios of lilac aldehyde and nonanal, two syringes bearing different concentrations of the odorants were used and positioned such that the outputs were positioned in the same location in the air stream. […]

[1] = system: Ae. increpitus mosquito antennal lobe (AL) glomeruli; assay: Two-photon calcium imaging (Fluo4) of the antennal lobe, Ae. increpitus; type: in vivo; conditions: for LC2 glomerulus response: single odorants
Procedure: Odor-evoked responses in the Ae. increpitus mosquito antennal lobe (AL) with nine female mosquitoes at the beginning of the season when mosquitoes were relatively young (as defined by wing and scale appearance). Calcium imaging experiments were conducted using application of the calcium indicator Fluo4 to the mosquito brain and using a stage that allows simultaneous calcium imaging and tethered flight. The mosquito was cooled on ice and transferred to a Peltier-cooled holder that enables the mosquito to head to be fixed to the stage using ultraviolet glue. The custom stage permits the superfusion of saline to the head capsule and space for movement by the wings and proboscis. Once the mosquito was fixed to the stage, a window in its head was cut to expose the brain, and the brain was continuously superfused with physiological saline. Next, the perineural sheath was gently removed from the AL using fine forceps and 75 μL of the Fluo4 solution—made by […] of Fluo4 in 30 μL Pluronic F-127 and then subsequently diluted in 950 μL of mosquito physiological saline—was pipetted to the holder allowing the brain to be completely immersed in the dye. Mosquitoes were kept in the dark at 15° C. for 1.5 h (the appropriate time for adequate penetration of the dye into the tissue), after which the brain was washed 3 times with physiological saline. After the rinse, mosquitoes were kept in the dark at room temperature for approximately 10-20 min. before imaging.
Wing stroke amplitudes were acquired and analyzed using a custom camera-based computer vision system at frame rates of 100 Hz, where the mosquito was illuminated with infrared LEDs (880 nm) and images were collected with an infrared-sensitive camera synched to the two-photon system. Stimulus-evoked initiation of flight and changes in the amplitude of the wing-stroke envelope were characterized for each odor stimulus. Calcium-evoked responses in the AL were imaged using the Prairie Ultima IV two-photon excitation microscope (Prairie Technologies) and Ti-Sapphire laser (Chameleon Ultra; Coherent). Experiments were performed at a depth of 40 μm from the ventral surface of the AL, allowing the calcium dynamics from approximately 18-22 glomeruli to be repeatedly imaged across preparations. Images were collected at 2 Hz, and for each odor stimulus images were acquired for 35 s, starting 10 s before the stimulus onset. Imaging data were extracted in Fiji/ImageJ and imported into Matlab (v2017; Mathworks, Natick, Mass.) for Gaussian filtering (2×2 pixel; σ=1.5-3) and alignment using a single frame as the reference at a given imaging depth and subsequently registered to every frame to within ¼ pixel. Trigger-averaged ΔF/F was used for comparing glomerular responses between odor stimuli. […]

Culiseta mosquitoes = assay: GC-EAD antennal responses, Culiseta mosquitoes; design: species or system Culiseta sp.; conditions: peaks of the P. obtusata scent
From the text: as §1
Individual mosquitoes were isolated in Falcon™ tubes (Thermo Fisher Scientific, Pittsburgh, Pa., USA) covered with a piece of fine mesh. They were maintained in a climatic chamber, as previously described, and identified immediately before running the experiment. […]

[2] = odorant tuning used for glomerular registration
[3] = scents of P. stricta and P. huronensis, Ae. increpitus, Ae. communis, Ae. canadensis and Culiseta sp.

Compound: C=C1C2CCC(C2)C1(C)C (centres unmarked) [camphene]
- antennal responses (GC-EAD) (Aedes mosquitoes; peaks of the P. obtusata scent): evoked antennal responses

Compound: CCN(CC)C(=O)c1cccc(C)c1 [DEET, N,N-diethyl-meta-toluamide, reference compound]
- AM2 response with increasing dose (Ae. aegypti AL glomeruli): significant increases in response with increasing dose
- AM2 glomerulus response (Ae. aegypti AL glomeruli): responsive

Compound: CC1CCCC2(C)CCCCC12O (centres unmarked) [geosmin, reference compound]
- PD3 glomerulus response (Ae. aegypti AL glomeruli; [2]): responsive

Compound: CCCCCCCCC=O [nonanal]
- AM2 glomerulus response ([1]; odor stimulation): often exhibited inhibition
- LC2 glomerulus response [1]: strongest response
- antennal responses (GC-EAD) (Culiseta mosquitoes): very little response
- antennal responses (GC-EAD) (Aedes mosquitoes; peaks of the P. obtusata scent): evoked antennal responses; also recorded: consistent responses and one of the strongest relative responses
- antennal responses (GC-EAD) (Aedes mosquitoes; [3]): all responded
- glomerular responses in the AL (Ae. aegypti AL glomeruli): strong responses
- AM2 response to lilac aldehyde/nonanal mixtures (Ae. aegypti AL glomeruli): caused suppression of AM2 responses to lilac aldehyde
- LC2 response to lilac aldehyde/nonanal mixtures (Ae. aegypti AL glomeruli): increasing the activation of LC2
- AM2 glomerulus response (Ae. aegypti AL glomeruli): often exhibited inhibition
- AL3 glomerulus response (Ae. aegypti AL glomeruli; [2]): responsive
- LC2 glomerulus response (Ae. aegypti AL glomeruli): responsive; also recorded: strongest response

Compound: picrotoxin [reference compound]
- effect of GABA-receptor antagonists on AM2 response to the P. obtusata scent (Ae. aegypti AL glomeruli): the effect of nonanal was blocked
- effect of GABA-receptor antagonists on LC2 and AM2 responses to the P. stricta scent (Ae. aegypti AL glomeruli): blocked the symmetrical inhibition by nonanal and lilac aldehyde

Compound: CCCCCCCC=O [octanal]
- LC2 glomerulus response [1]: strongest response
- antennal responses (GC-EAD) (Aedes mosquitoes; peaks of the P. obtusata scent): evoked antennal responses
- glomerular responses in the AL (Ae. aegypti AL glomeruli): strong responses
- LC2 glomerulus response (Ae. aegypti AL glomeruli): strongest response

Compound: O=C=O [CO2, reference compound]
- MD2 glomerulus response (Ae. aegypti AL glomeruli; [2]): responsive

Compound: C=C1CCC2CC1C2(C)C (stereo not drawn) [β-pinene]
- antennal responses (GC-EAD) (Aedes mosquitoes; peaks of the P. obtusata scent): evoked antennal responses

Compound: CC1=CCC2CC1C2(C)C (stereo not drawn) [α-pinene]
- antennal responses (GC-EAD) (Aedes mosquitoes; peaks of the P. obtusata scent): evoked antennal responses

Compound: C=CC1(C)CCC(C(C)C=O)O1 (centres unmarked) [lilac aldehyde, 5-dimethyl-5-ethenyl-2-tetrahydrofuranacetaldehydes]
- antennal responses (GC-EAD) (Aedes mosquitoes; high concentration in the scent of P. stricta, lesser in P. huronensis, antennae of Ae. increpitus and Ae. communis): relatively strong responses
- antennal responses (GC-EAD) (Aedes mosquitoes; peaks of the P. obtusata scent): evoked antennal responses
- antennal responses (GC-EAD) (Aedes mosquitoes; [3]): all responded
- AM2 response with increasing dose (Ae. aegypti AL glomeruli): significant increases in response with increasing dose
- glomerular responses in the AL (Ae. aegypti AL glomeruli): strong responses
- AM2 response to lilac aldehyde/nonanal mixtures (Ae. aegypti AL glomeruli): increased AM2 activation
- LC2 response to lilac aldehyde/nonanal mixtures (Ae. aegypti AL glomeruli): suppressed the response of LC2 to nonanal
- AM2 glomerulus response to orchid mixtures (Ae. aegypti AL glomeruli; mixtures with lilac aldehyde scaled to other Platanthera species, compared with P. obtusata, Kruskal-Wallis p<0.05): significant increase in AM2 responses
- LC2 glomerulus response to orchid mixtures (Ae. aegypti AL glomeruli; mixtures with lilac aldehyde scaled to other Platanthera species, nonanal as in the P. obtusata mixture, Kruskal-Wallis p<0.05): significant suppression of LC2 response
- AM2 glomerulus response (Ae. aegypti AL glomeruli): strongest response; also recorded: responsive

Compound: CCCCCCCCO [1-octanol]
- LC2 glomerulus response [1]: strongest response
- LC2 glomerulus response (Ae. aegypti AL glomeruli): strongest response

Compound: C[C@H](NC[C@H](O)CP(=O)(O)CC1CCCCC1)c1ccc(Cl)c(Cl)c1 [CGP54626, reference compound]
- effect of GABA-receptor antagonists on AM2 response to the P. obtusata scent (Ae. aegypti AL glomeruli): the effect of nonanal was blocked
- effect of GABA-receptor antagonists on LC2 and AM2 responses to the P. stricta scent (Ae. aegypti AL glomeruli): blocked the symmetrical inhibition by nonanal and lilac aldehyde

Compound: C=CC(=C)CCC=C(C)C [β-myrcene]
- antennal responses (GC-EAD) (Aedes mosquitoes; [3]): all responded

Compound: C=CC(C)(O)CCC=C(C)C (racemic) [linalool]
- antennal responses (GC-EAD) (Aedes mosquitoes; [3]): all responded

Compound: O=Cc1ccccc1 [benzaldehyde]
- antennal responses (GC-EAD) (Aedes mosquitoes; [3]): all responded
